US20250051301A1, “MUTANT IDH1 AND IDH2 INHIBITOR AND APPLICATION THEREOF” (Betta Pharmaceuticals Co., Ltd, priority 2022, published 2025)

Columns and labels:
IDH1^R132H [1] = target: T1, IDH1^R132H (Homo sapiens, UniProt O75874, R132H); assay: Enzyme activity inhibition assay (fluorescence-based), IDH1 R132H; format: biochemical
Description: The inhibitory ability of the compounds on the enzyme activities of IDH1^R132H and IDH2^R140Qwas detected and expressed as the half inhibitory concentration (IC50) value. AG-881 was used as a positive control compound. In this experiment, compounds were screened on enzymes IDH1^R132H and IDH2^R140Q using a fluorescence-based method (initial concentration: 10000 nM, 3-fold dilution, 10 concentrations, and single-well detection). • (1) Preparation of 1×assay buffer. • (2) Preparation of compound concentration gradient: the compounds to be tested were assayed at an initial concentration of 10000 nM, with 3-fold dilution and 10 concentrations, and diluted into 200-fold the final concentration in 100% DMSO solution in a 384-well plate. • (3) 250 nL of DMSO and 250 nL of diluted compounds were transferred to a reaction plate with Echo 550. • (4) IDH2^R140Q enzyme detection: 25 μL of an IDH2^R140Q enzyme solution was added, and the mixture was incubated for 60 minutes; then 25 μL of a substrate solution was added, and the mixture was incubated for 150 minutes; then 25 μL of a detection buffer was added, and the mixture was shaken for 1 minute and incubated for 60 minutes; and finally, Synergy 2, Ex544/Em590 cutoff 590 was used for reading. • (5) IDH1^R132H enzyme detection: 40 μL of a mixture solution of an IDH1^R132H enzyme at the 1.25-fold final concentration and NADPH was added, and the mixture was incubated for 60 minutes; then 10 μL of a substrate solution at the 5-fold final concentration was added, and the mixture was incubated for 90 minutes; then 25 μL of a detection buffer at the 3-fold final concentration was added, and the mixture was shaken for 1 minute. and finally, Synergy 2, Ex544/Em590 cutoff 590 was used for reading. • (8) Inhibition rate calculation, formula: % Inhibition=(RFU_sample−RFU_min)/(RFU_max−RFU_min)*100%, wherein RFU-sample represents the fluorescence intensity of a sample; RFU-min represents the average value of negative control wells and represents the fluorescence intensity with an enzyme; and RFU-max represents the average value of positive control wells and represents the fluorescence intensity without an enzyme. The curve fitting was performed using Graphpad Prism software to obtain IC50 values, and the test results were as shown in table 2.

IDH1^R132H [2] = target: T1, IDH1^R132H; assay: 2-HG assay in cells (U87 cell line stably transfected with IDH1-R132H); format: cell-based; settings: 72 hours, read-out: 2-HG in medium (IC50, nM) (IDH1^R132H)
Description: The compounds were detected for the inhibition of 2-HG production in the U87 cell line stably transfected with IDH1-R132H and the culture supernatant of TF-1 cells stably transfected with IDH2-R140Q. • (1) The cultured cells were collected by centrifugation, then suspended in a cell culture solution, counted, and seeded in a 96-well cell culture plate at 160 μL of cell suspension/well (20000 cells/well for U87-IDH1-R132H; 10000 cells/well for TF-1-IDH2-R140Q). • (2) A 96-well plate dilution was taken, and the compounds to be tested were diluted in a gradient manner in DMSO and a cell culture solution; and then 40 μL of the gradient-diluted compounds to be tested were added to the 96-well plate on which cells have been plated. […] Finally, the plate was cultured in a 37° C. incubator containing 5% CO2. • (3) After the compounds were incubated with the cells for 72 hours, the cell culture plate was taken out and centrifuged at 1500 rpm for 5 minutes, and then 100 μL of the medium supernatant was aspirated for 2-HG detection. • (4) 2-HG detection: the cell supernatant was diluted with purified water, 30 μL of the diluted sample was taken into a 1.5 ml centrifuge tube, and 200 μL of the internal standard solution was added. The mixture was mixed uniformly by vortex and centrifuged at 3200 rpm at 4° C. for 15 minutes. 100 μL of the supernatant solution was diluted with water at a 1:1 ratio and then detected by LC-MS. Analyte Peak Area was used to represent the 2-HG levels. • (5) Inhibition rate calculation, formula: % Inhibition=(1−Analyte Peak Area_sample/Analyte Peak Area_max)*100%, wherein Analyte Peak Area_sample represents the Analyte Peak Area of the sample to which the compound was added; Analyte Peak Area_max represents the average value of Analyte Peak Area of positive control wells (representing the absence of the compound). The curve fitting was performed using Graphpad Prism software to obtain IC50 values, and the test results were as shown in table 2.

T1 sequence (O75874 whole entry R132H): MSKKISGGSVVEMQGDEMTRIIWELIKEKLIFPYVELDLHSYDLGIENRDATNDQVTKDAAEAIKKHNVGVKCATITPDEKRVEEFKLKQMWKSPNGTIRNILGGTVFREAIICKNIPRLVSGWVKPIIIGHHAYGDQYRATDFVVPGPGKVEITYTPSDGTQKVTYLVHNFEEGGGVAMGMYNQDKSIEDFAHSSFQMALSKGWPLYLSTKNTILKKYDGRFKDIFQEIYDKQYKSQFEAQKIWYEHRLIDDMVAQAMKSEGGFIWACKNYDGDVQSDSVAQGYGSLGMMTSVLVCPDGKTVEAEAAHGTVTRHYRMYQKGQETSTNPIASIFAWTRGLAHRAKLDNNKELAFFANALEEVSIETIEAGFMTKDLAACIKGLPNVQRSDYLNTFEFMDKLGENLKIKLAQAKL

Row | Structure (SMILES) | IC50 (IDH1^R132H [1]; class symbols) [nM] | IC50 (IDH1^R132H [2]; class symbols) [nM] | IC50 (IDH1^R132H [1]; numeric values) [nM] | IC50 (IDH1^R132H [2]; numeric values) [nM]
1 | COc1cc(-c2nc(N[C@H](C)C(F)(F)F)nc(N[C@H](C)C(F)(F)F)n2)nc(Cl)c1N [Example 3, 6-(5-amino-6-chloro-4-methoxypyridin-2-yl)-N^2,N^4-bis((R)-1,1,1-trifluoroprop-2-yl)-1,3,5-triazine-2,4-diamine] | > 1000 | > 1000 |  | 
2 | CNc1c(Cl)cc(-c2nc(N[C@H](C)C(F)(F)F)nc(N[C@H](C)C(F)(F)F)n2)nc1Cl [Example 20, 6-(4,6-dichloro-5-methylaminopyridin-2-yl)-N^2,N^4-bis((R)-1,1,1-trifluoroprop-2-yl)-1,3,5-triazine-2,4-diamine] | > 1000 |  |  | 
3 | C[C@@H](Nc1nc(N[C@H](C)C(F)(F)F)nc(-c2nc(Cl)c(N)cc2F)n1)C(F)(F)F [Example 4, 6-(5-amino-6-chloro-3-fluoropyridin-2-yl)-N^2,N^4-bis((R)-1,1,1-trifluoroprop-2-yl)-1,3,5-triazine-2,4-diamine] | > 1000 | > 1000 |  | 
4 | C[C@@H](Nc1nc(N[C@H](C)C(F)(F)F)nc(-c2ccc(N)c(Cl)n2)n1)C(F)(F)F [Example 2] |  |  | 22 | 17
5 | Nc1c(F)cc(-c2nc(NC3CC(F)(F)C3)nc(NC3CC(F)(F)C3)n2)nc1Cl [Example 12, 6-(5-amino-6-chloro-4-fluoropyridin-2-yl)-N^2,N^4-bis(3,3-difluorocyclobutyl)-1,3,5-triazine-2,4-diamine] | ≤ 50 | ≤ 50 |  | 
6 | C[C@@H](Nc1nc(N[C@H](C)C(F)(F)F)nc(-c2cc(F)c(Cl)c(Cl)n2)n1)C(F)(F)F [Example 17, 6-(5,6-dichloro-4-fluoropyridin-2-yl)-N^2,N^4-bis((R)-1,1,1-trifluoroprop-2-yl)-1,3,5-triazine-2,4-diamine] | ≤ 50 | ≤ 50 |  | 
7 | C[C@@H](Nc1nc(N[C@H](C)C(F)(F)F)nc(-c2cc(F)c(O)c(Cl)n2)n1)C(F)(F)F [Example 10, 6-(4,6-bis(((R)-1,1,1-trifluoroprop-2-yl)amine)-1,3,5-triazin-2-yl)-2-chloro-4-fluoropyridin-3-ol] | > 1000 | 100 to 1000 |  | 
8 | C[C@@H](Nc1nc(N[C@H](C)C2CC2)nc(-c2cc(F)c(N)c(Cl)n2)n1)C1CC1 [Example 11, 6-(5-amino-6-chloro-4-fluoropyridin-2-yl)-N^2,N^4-bis((R)-1-cyclopropylethyl)-1,3,5-triazine-2,4-diamine] | > 1000 | 100 to 1000 |  | 
9 | C[C@@H](Nc1nc(N[C@H](C)C(F)(F)F)nc(-c2cc(OC(F)F)c(N)c(Cl)n2)n1)C(F)(F)F [Example 22, 6-(5-amino-6-chloro-4-(difluoromethoxy)pyridin-2-yl)-N^2,N^4-bis((R)-1,1,1-trifluoropropyl-2-yl)-1,3,5-triazine-2,4-diamine] | > 1000 |  |  | 
10 | C=Cc1cc(-c2nc(N[C@H](C)C(F)(F)F)nc(N[C@H](C)C(F)(F)F)n2)nc(Cl)c1N [Example 9, 6-(5-amino-6-chloro-4-vinylpyridin-2-yl)-N^2,N^4-bis((R)-1,1,1-trifluoropropyl-2-yl)-1,3,5-triazine-2,4-diamine] | > 1000 | > 1000 |  | 
11 | C[C@@H](Nc1nc(N[C@H](C)C(F)(F)F)nc(-c2cc(Cl)c(N(C)C)c(Cl)n2)n1)C(F)(F)F [Example 21, 6-(4,6-dichloro-5-dimethylaminopyridin-2-yl)-N^2,N^4-bis((R)-1,1,1-trifluoroprop-2-yl)-1,3,5-triazine-2,4-diamine] | 100 to 1000 |  |  | 
12 | C[C@@H](Nc1nc(N[C@H](C)C(F)(F)F)nc(-c2cc(C(F)(F)F)c(N)c(Cl)n2)n1)C(F)(F)F [Example 25, 6-(6-chloro-5-amino-4-(trifluoromethyl)pyridin-2-yl)-N^2,N^4-bis((R)-1,1,1-trifluoropropyl-2-yl)-1,3,5-triazine-2,4-diamine] | 100 to 1000 | 100 to 1000 |  | 
13 | C[C@@H](Nc1nc(N[C@H](C)C(F)(F)F)nc(-c2cc(F)c(N)c(C(F)(F)F)n2)n1)C(F)(F)F [Example 13, 6-(5-amino-4-fluoro-6-(trifluoromethyl)pyridin-2-yl)-N^2,N^4-bis((R)-1,1,1-trifluoroprop-2-yl)-1,3,5-triazine-2,4-diamine] | > 1000 | 100 to 1000 |  | 
14 | C[C@@H](Nc1nc(N[C@H](C)C(F)(F)F)nc(-c2cc(Br)c(N)c(Cl)n2)n1)C(F)(F)F [Example 6, 6-(5-amino-4-bromo-6-chloropyridin-2-yl)-N^2,N^4-bis((R)-1,1,1-trifluoropropyl-2-yl)-1,3,5-triazine-2,4-diamine] | 100 to 1000 | 50 to 100 |  | 
